Data published in the supplement of paper PMC10307832.

Columns and labels:
Assay in all cases: relative viability (nuclei count vs DMSO), 5 days (fraction); higher = more cells survive
[1] = test system: LK-2
Method in brief: (§1)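 Relative viability is defined as nuclei in treated wells over nuclei in vehicle wells. Duplicate plates were run and medians reported. Lung cancer cell lines in 1536-well plates were dosed by pin tool one day after seeding, with one drug or with a fixed anchor-drug dose plus five library-drug doses (not always all listed) in √10 steps, and nuclei were counted after 5 days.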

[2] = test system: HARA
Method in brief: as §1

[3] = test system: SK-LU-1
Method in brief: as §1

[4] = test system: UMC-11
Method in brief: as §1

[5] = test system: NCI-H2009
Method in brief: as §1

[6] = test system: NCI-H23
Method in brief: as §1

[7] = test system: HCC-78
Method in brief: as §1

[8] = test system: NCI-H1734
Method in brief: as §1

[9] = test system: ABC-1
Method in brief: as §1

[10] = test system: NCI-H838
Method in brief: as §1

[11] = test system: ChaGo-K-1
Method in brief: as §1

[12] = test system: LC-2-ad
Method in brief: as §1

[13] = test system: A-427
Method in brief: as §1

[14] = test system: HCC-366
Method in brief: as §1

[15] = test system: HCC-15
Method in brief: as §1

[16] = test system: COR-L23
Method in brief: as §1

[17] = test system: NCI-H1993
Method in brief: as §1

[18] = test system: NCI-H2405
Method in brief: as §1

[19] = test system: NCI-H1650
Method in brief: as §1

[20] = test system: NCI-H1944
Method in brief: as §1

[21] = test system: NCI-H2023
Method in brief: as §1

[22] = test system: NCI-H1793
Method in brief: as §1

[23] = test system: EMC-BAC-2
Method in brief: as §1

COc1cc(N2CCC(C(N)=O)CC2)ccc1Nc1nc(N)c(Cl)c(Nc2ccccc2S(=O)(=O)C(C)C)n1 [HG-5-88-01] + Nc1ncn([C@H]2C[C@H](O)[C@@H](CO)O2)c(=O)n1 [Decitabine] (partner 2 µM)
relative viability ([1]; first compound 0.04 µM): 0.254 | relative viability ([1]; first compound 0.1265 µM): 0.327 | relative viability ([1]; first compound 0.4 µM): 0.386 | relative viability ([1]; first compound 4 µM): 0.236 | relative viability ([2]; first compound 0.04 µM): 0.581 | relative viability ([2]; first compound 0.1265 µM): 0.504 | relative viability ([2]; first compound 0.4 µM): 0.663 | relative viability ([2]; first compound 1.265 µM): 0.451 | relative viability ([2]; first compound 4 µM): 0.494 | relative viability ([3]; first compound 0.04 µM): 0.525 | relative viability ([3]; first compound 0.1265 µM): 0.595 | relative viability ([3]; first compound 0.4 µM): 0.598 | relative viability ([3]; first compound 1.265 µM): 0.598 | relative viability ([3]; first compound 4 µM): 0.344 | relative viability ([4]; first compound 0.04 µM): 0.638 | relative viability ([4]; first compound 0.1265 µM): 0.706 | relative viability ([4]; first compound 0.4 µM): 0.604 | relative viability ([4]; first compound 1.265 µM): 0.526 | relative viability ([4]; first compound 4 µM): 0.672 | relative viability ([5]; first compound 0.04 µM): 0.355 | relative viability ([5]; first compound 0.1265 µM): 0.384 | relative viability ([5]; first compound 0.4 µM): 0.338 | relative viability ([5]; first compound 1.265 µM): 0.314 | relative viability ([5]; first compound 4 µM): 0.377 | relative viability ([6]; first compound 0.04 µM): 0.365 | relative viability ([6]; first compound 0.1265 µM): 0.331 | relative viability ([6]; first compound 0.4 µM): 0.327 | relative viability ([6]; first compound 1.265 µM): 0.282 | relative viability ([6]; first compound 4 µM): 0.329 | relative viability ([7]; first compound 0.04 µM): 0.696 | relative viability ([7]; first compound 0.1265 µM): 0.598 | relative viability ([7]; first compound 0.4 µM): 0.62 | relative viability ([7]; first compound 1.265 µM): 0.411 | relative viability ([7]; first compound 4 µM): 0.432 | relative viability ([8]; first compound 0.04 µM): 0.526 | relative viability ([8]; first compound 0.1265 µM): 0.564 | relative viability ([8]; first compound 0.4 µM): 0.511 | relative viability ([8]; first compound 1.265 µM): 0.462 | relative viability ([8]; first compound 4 µM): 0.532 | relative viability ([9]; first compound 0.04 µM): 0.998 | relative viability ([9]; first compound 0.1265 µM): 1.09 | relative viability ([9]; first compound 0.4 µM): 1.1 | relative viability ([9]; first compound 1.265 µM): 0.884 | relative viability ([9]; first compound 4 µM): 0.946 | relative viability ([10]; first compound 0.04 µM): 0.46 | relative viability ([10]; first compound 0.1265 µM): 0.467 | relative viability ([10]; first compound 0.4 µM): 0.491 | relative viability ([10]; first compound 1.265 µM): 0.407 | relative viability ([10]; first compound 4 µM): 0.341 | relative viability ([11]; first compound 0.04 µM): 0.524 | relative viability ([11]; first compound 0.1265 µM): 0.515 | relative viability ([11]; first compound 0.4 µM): 0.51 | relative viability ([11]; first compound 1.265 µM): 0.542 | relative viability ([11]; first compound 4 µM): 0.552 | relative viability ([12]; first compound 0.04 µM): 0.782 | relative viability ([12]; first compound 0.1265 µM): 0.719 | relative viability ([12]; first compound 0.4 µM): 0.771 | relative viability ([12]; first compound 1.265 µM): 0.814 | relative viability ([12]; first compound 4 µM): 0.855 | relative viability ([13]; first compound 0.04 µM): 0.549 | relative viability ([13]; first compound 0.1265 µM): 0.598 | relative viability ([13]; first compound 0.4 µM): 0.603 | relative viability ([13]; first compound 1.265 µM): 0.585 | relative viability ([13]; first compound 4 µM): 0.547 | relative viability ([14]; first compound 0.04 µM): 0.367 | relative viability ([14]; first compound 0.1265 µM): 0.357 | relative viability ([14]; first compound 0.4 µM): 0.436 | relative viability ([14]; first compound 1.265 µM): 0.338 | relative viability ([14]; first compound 4 µM): 0.343 | relative viability ([15]; first compound 0.04 µM): 0.682 | relative viability ([15]; first compound 0.1265 µM): 0.709 | relative viability ([15]; first compound 0.4 µM): 0.487 | relative viability ([15]; first compound 1.265 µM): 0.572 | relative viability ([15]; first compound 4 µM): 0.477 | relative viability ([16]; first compound 0.04 µM): 0.405 | relative viability ([16]; first compound 0.1265 µM): 0.531 | relative viability ([16]; first compound 0.4 µM): 0.543 | relative viability ([16]; first compound 1.265 µM): 0.379 | relative viability ([16]; first compound 4 µM): 0.391 | relative viability ([17]; first compound 0.04 µM): 0.583 | relative viability ([17]; first compound 0.1265 µM): 0.709 | relative viability ([17]; first compound 0.4 µM): 0.586 | relative viability ([17]; first compound 4 µM): 0.545 | relative viability ([18]; first compound 0.04 µM): 0.67 | relative viability ([18]; first compound 0.1265 µM): 0.754 | relative viability ([18]; first compound 0.4 µM): 0.783 | relative viability ([18]; first compound 1.265 µM): 0.624 | relative viability ([18]; first compound 4 µM): 0.672 | relative viability ([19]; first compound 0.04 µM): 0.378 | relative viability ([19]; first compound 0.1265 µM): 0.559 | relative viability ([19]; first compound 0.4 µM): 0.527 | relative viability ([19]; first compound 1.265 µM): 0.559 | relative viability ([19]; first compound 4 µM): 0.413 | relative viability ([20]; first compound 0.04 µM): 0.398 | relative viability ([20]; first compound 0.1265 µM): 0.417 | relative viability ([20]; first compound 0.4 µM): 0.554 | relative viability ([20]; first compound 1.265 µM): 0.457 | relative viability ([20]; first compound 4 µM): 0.514 | relative viability ([21]; first compound 0.04 µM): 0.223 | relative viability ([21]; first compound 0.1265 µM): 0.244 | relative viability ([21]; first compound 0.4 µM): 0.229 | relative viability ([21]; first compound 1.265 µM): 0.236 | relative viability ([21]; first compound 4 µM): 0.256 | relative viability ([22]; first compound 0.04 µM): 0.554 | relative viability ([22]; first compound 0.1265 µM): 0.518 | relative viability ([22]; first compound 0.4 µM): 0.701 | relative viability ([22]; first compound 1.265 µM): 0.408 | relative viability ([22]; first compound 4 µM): 0.499 | relative viability ([23]; first compound 0.04 µM): 1 | relative viability ([23]; first compound 0.1265 µM): 1.07 | relative viability ([23]; first compound 0.4 µM): 0.965 | relative viability ([23]; first compound 1.265 µM): 0.874 | relative viability ([23]; first compound 4 µM): 0.802
